According to ChEMBL document CHEMBL2202973, “Specific interactions between adenosine and streptavidin/avidin” (Bioorg Med Chem Lett, 2012):
Active and inactive are the calls of the source. The rule behind the calls is not given here.

What was measured:
[1] = molecular target: Streptavidin (Streptomyces avidinii) (UniProt P22629); test: Binding affinity to Streptomyces avidinii assessed as quenching rate constant by fluorescence quenching spectral method
Streptavidin = Streptavidin (Streptomyces avidinii, UniProt P22629); test: Binding affinity to Streptomyces avidinii streptavidin using fluorescence spectral analysis method based double reciprocal plot analysis; settings: read-out: Kd(app)
Chain of Streptavidin (P22629 whole entry): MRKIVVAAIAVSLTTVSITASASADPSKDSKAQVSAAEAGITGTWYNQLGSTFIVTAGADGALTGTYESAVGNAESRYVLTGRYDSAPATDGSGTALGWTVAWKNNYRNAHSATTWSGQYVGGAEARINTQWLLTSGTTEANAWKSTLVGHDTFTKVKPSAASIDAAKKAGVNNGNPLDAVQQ

Avidin = Avidin (Gallus gallus, UniProt P02701); test: Binding affinity to chick avidin using fluorescence spectral analysis method based double reciprocal plot analysis; settings: read-out: Kd(app)
Chain of Avidin (P02701 whole entry): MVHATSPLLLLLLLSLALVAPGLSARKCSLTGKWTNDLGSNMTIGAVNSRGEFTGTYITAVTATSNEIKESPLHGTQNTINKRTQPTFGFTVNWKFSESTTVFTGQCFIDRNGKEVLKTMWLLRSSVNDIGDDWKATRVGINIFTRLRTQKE

Avidin (Gallus gallus) [2] = molecular target: Avidin (Gallus gallus) (UniProt P02701); test: Binding affinity to chick avidin assessed as changes in protein fluorescence intensity by fluorescence spectral analysis method
Chain of Avidin (Gallus gallus) (P02701 whole entry): as above

Albumin = Albumin (Bos taurus, UniProt P02769); test: Binding affinity to BSA assessed as changes in tryptophan fluorescence intensity by fluorescence spectral analysis method; settings: cattle
Chain of Albumin (P02769 whole entry): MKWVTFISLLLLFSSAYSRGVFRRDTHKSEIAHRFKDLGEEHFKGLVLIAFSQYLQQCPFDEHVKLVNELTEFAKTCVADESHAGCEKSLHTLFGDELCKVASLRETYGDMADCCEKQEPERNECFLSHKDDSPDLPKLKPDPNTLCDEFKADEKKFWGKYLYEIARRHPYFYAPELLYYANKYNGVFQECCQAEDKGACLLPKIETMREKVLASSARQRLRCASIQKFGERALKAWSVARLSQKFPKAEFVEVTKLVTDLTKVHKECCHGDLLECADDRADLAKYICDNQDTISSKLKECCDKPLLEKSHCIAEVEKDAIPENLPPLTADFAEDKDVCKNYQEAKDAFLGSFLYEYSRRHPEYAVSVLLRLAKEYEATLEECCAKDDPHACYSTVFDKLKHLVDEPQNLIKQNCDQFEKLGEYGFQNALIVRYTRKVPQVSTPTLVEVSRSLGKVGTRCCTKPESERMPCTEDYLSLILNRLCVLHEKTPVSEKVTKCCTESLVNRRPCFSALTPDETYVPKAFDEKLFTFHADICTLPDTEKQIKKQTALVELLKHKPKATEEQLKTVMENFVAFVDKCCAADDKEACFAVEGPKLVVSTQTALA

Avidin (Gallus gallus) [3] = molecular target: Avidin (Gallus gallus) (UniProt P02701); test: Binding affinity to chick avidin assessed as quenching rate constant by fluorescence quenching spectral method
[4] = molecular target: Streptavidin (Streptomyces avidinii) (UniProt P22629); test: Binding affinity to Streptomyces avidinii assessed as changes in protein fluorescence intensity in presence of biotin by fluorescence spectral analysis method
[5] = molecular target: Streptavidin (Streptomyces avidinii) (UniProt P22629); test: Binding affinity to Streptomyces avidinii assessed as changes in protein fluorescence intensity by fluorescence spectral analysis method
Avidin (Gallus gallus) [6] = molecular target: Avidin (Gallus gallus) (UniProt P02701); test: Binding affinity to chick avidin assessed as changes in protein fluorescence intensity in presence of biotin by fluorescence spectral analysis method

Chain of Streptavidin (Streptomyces avidinii) (P22629 whole entry): as the sequence (P22629 whole entry) above

Row | SMILES | Kq [1] [×10¹⁰ L/mol/s] | Kd (Streptavidin) [µM] | Kd (Avidin) [µM] | Activity (Avidin (Gallus gallus) [2]) | Activity (Albumin) | Kq (Avidin (Gallus gallus) [3]) [×10¹¹ L/mol/s] | Activity [4] | Activity [5] | Activity (Avidin (Gallus gallus) [6])
1 | Nc1ncnc2c1ncn2[C@@H]1O[C@H](CO)[C@@H](O)[C@H]1O [ADENOSINE] | 8.5 | 168 | 117 | Active | Not Active | 1.28 | inactive | Active | inactive
2 | Nc1ncnc2c1ncn2[C@@H]1O[C@H](COP(=O)(O)OP(=O)(O)OP(=O)(O)O)[C@@H](O)[C@H]1O |  |  |  |  |  |  |  | inactive | 
3 | O=C(O)CCCC[C@@H]1SC[C@@H]2NC(=O)N[C@@H]21 |  |  |  |  |  |  |  | Active | 
